# Results: patent publication US20130324543A1, “REVERSAL OF HIGH BREAST CANCER RISK IN MAMMALS EXPOSED TO ESTROGENIC CHEMICALS IN UTERO BY ADULT EXPOSURE TO HDAC AND DNMT INHIBITORS” (Georgetown University, priority 2012, published 2013)
# “Also recorded” adds a separate entry of the source.
# What was measured:
# [1] = Immediate adverse effects of dietary exposure in adult non-pregnant littermates of dams; type: in vivo, mice; details: last day of dietary exposure, data not shown
# Procedure: For ethical reasons non-pregnant littermate females were used for blood collection instead of the dams, and the samples were taken on the last day of their dietary exposure. Blood was collected by heart puncture of anesthetized mice prior to euthanasia, and serum was separated by centrifugation (1000×g for 10 min) and stored frozen until hormone measurements.
# In addition, possible immediate adverse effects of EE2, BPA and GEN exposure for adult mice were evaluated using the non-pregnant littermates of dams. Their body weights were recorded and the mammary gland morphology examined on the last day of their dietary exposure.
# [2] = test system: mammary tumors; assay: MPA/DMBA mammary tumorigenesis in mice exposed in utero to EE2, GEN or BPA (Example 5); type: in vivo, C57BL/6 mice
# Description: (§1) Additions to the basic diet were as follows: 1) cornstarch [control]; 2) EE2 0.1 ppm; 3) BPA 0.155 ppm; 4) GEN 500 ppm.
# [3] = Puberty onset (vaginal opening) of female mice exposed in utero; type: in vivo, C57BL/6 mice; details: female offspring, in utero exposure
# Procedure: To assess possible changes in sexual maturation due to in utero ECD exposures during embryogenesis, the day of puberty onset was recorded, as defined based on vaginal opening (VO) in female mice. The mice were examined once a day starting on PND 21. In sexually mature mice, the stage of estrus cycle was determined based on the cytology of their vaginal smear (sampled by pipetting 20 μl PBS in and out of vagina onto a slide) as judged under the microscope. Stage of estrus cycle was determined for each mouse before necropsy and sample collection.
# [4] = test system: mammary gland; assay: Mammary gland morphology of in utero exposed mice (whole mounts); type: in vivo, C57BL/6 mice; details: female mice, PND 27
# Procedure: One of the two #4 abdominal mammary glands was dissected and fixed in Carnoy's fixative and processed into whole mounts as previously described (8). The other #4 abdominal gland was snap frozen in liquid nitrogen and stored in −80° C. for future analysis. One of the two thoracic #2-3 mammary glands was fixed in neutral buffered 10% formalin, embedded in paraffin and processed for histology using routine methods, and the other was snap frozen in liquid nitrogen, also stored in −80° C. for future analysis. Uterus was dissected, and one horn with the ovary and vagina attached was fixed in 10% formalin, embedded in paraffin and processed for histology, and the other horn and one ovary were frozen in liquid nitrogen and stored in −80° C.
# To assess possible changes in mammary gland morphology, whole amounts of the 4th abdominal glands obtained on PND 27 were processed as previously described (4, 72). The total number of terminal end buds (TEBs) was counted. Identification of TEBs was based on the guidelines established by Russo and Russo (64). The total area (in pixels) of epithelium of the peripubertal (PND 27) mammary glands was analyzed by using ImageJ software (available through NIH web site) on digitized pictures of mammary whole mounts with ducts manually intensified black against white background (shown as an insert in FIG. 16). Ductal elongation (mammary epithelial outgrowth) on PND 50 was measured as the growth in millimeters from the end of the lymph node to the end of the epithelial tree. All the analyses were done blindly using an Olympus dissecting microscope.
# [5] = test system: PcGTs; assay: Microarray expression of PcGTs in mammary glands of in utero E2 exposed rats; type: in vivo; details: PND 50
# [6] = test system: mammary tumors; assay: Acquired tamoxifen (TAM) resistance of mammary tumors in in utero exposed rats; type: in vivo; details: 14-week follow-up, 7% in the control group
# [7] = test system: mammary gland; assay: Mammary gland morphology and TEB number after maternal E2 or high fat diet (FIG. 8, 11); type: in vivo, rats
# Description: exposures during pregnancy: […] Statistical analysis was done using ANOVA followed by between group comparisons using Tukey test. […] TEBs are the sites which give rise to malignant mammary tumors in rats; similar structures in the human breast-terminal ductal lobular units-give rise to 90% of human breast cancers.
# [8] = test system: MCF-7 breast cancer cells; details: MCF-7 cells; cited from earlier work
# [9] = test system: mammary tumors; assay: Mammary tumorigenesis in F1 rats exposed to E2 in utero (FIG. 7); type: in vivo; details: F1 generation exposed in utero vs controls
# [10] = test system: estrogen receptor alpha (ER-a); assay: ER-a methylation and expression in mammary glands of in utero E2 exposed rats
# Description: A high in utero estrogenic environment increases the risk of developing breast cancer (FIG. 1). Increased risk is associated with greater epithelial cell proliferation and survival during mammary gland development, driven by persistent changes in the mammary transcriptome. How these transcriptional changes are initiated and maintained is unclear. […] We then determined whether estrogen receptor alpha (ER-a) is methylated in the E2 exposed rats. […] These mechanisms could include non-coding microRNAs (miRNAs) which are essential for early development and which inhibit expression of their target genes. Since several miRNAs are known to be suppressed by E2 in MCF-7 human breast cancer cells (Maillot et al. Cancer Res 2009), we determined whether persistent changes in miRNA expression may be seen in the adult mammary glands of rats exposed to E2 in utero. miRNAs were measured using applied Biosystems TaqManR Array Rodent MicroRNA.
# [11] = Body weight and growth of in utero exposed pups; type: in vivo, C57BL/6 mice; details: in utero exposure
# Description: as §1
# [12] = test system: mammary tumors; assay: MPA/DMBA-induced mammary tumorigenesis in mice exposed in utero to EE2 or GEN, with or without adult HDAC+DNMT inhibitors
# Procedure: Time pregnant C57BL/6 female mice were obtained from Harlan (Harlan-Teclad, USA) on gestation day 6, and were randomly assigned into three groups on the following day (gestation day 7). The basic diet formulation in the study was a semi-purified AIN93G (the American Institute of Nutrition) modified to replace soy oil for corn oil; all the diets of the three treatment groups were also purchased from Harlan. The diets were isocaloric, as ethinyl estradiol (EE2) or genistein (GEN) were added in the diet at the expense of comstarch. Additions to the basic diet were as follows: 1) EE2 0.1 ppm, and 2) GEN 500 ppm. EE2 was purchased from Sigma Chemicals (St. Louis, Mo., USA), and GEN was a gift from Dr. William Helferich (University of Illinois, Urbana, Ill., USA).
# The pregnant dams were fed these diets until the day of the delivery of their pups (Post Natal Day 0, PND 0). Starting on PND 0, all mice were fed the control diet until the end of the study. Female mice born from the dams fed with the different above mentioned diets were used in the subsequent studies. For study outline, see FIG. 12. Animals were housed in a temperature- and humidity-controlled room under a 12-hour light-dark cycle. All animal procedures were approved by the Georgetown University Animal Care and Use Committee, and the experiments were performed following the National Institutes of Health guidelines for the proper and humane use of animals in biomedical research.
# Mammary tumors were induced by administration of a subcutaneous injection of Medroxyprogesterone Acetate (MPA) to mice at 6 weeks of age, followed by administration of 1 mg 7,12-dimethylbenz(a)anthracene (DMBA) (Sigma, St. Louis, Mo.) weekly for four weeks (weeks 7, 8, 9, 10) (23). The carcinogen was dissolved in corn oil and administered by oral gavage in a volume of ca. 0.1 ml.
# One week after the last dose of DMBA was administered, some of the mice were started on hydralazine (5 mg/kg/day) and valproic acid treatments (1.16 g/kg/day) treatments.
# The two compounds were given in a drinking water, which was prepared fresh twice a week. The doses were chosen based on the literature (24-26). The number of animals in each group is as follows: Control n=18, Control given HDAC+DNMT inhibitors n=9, EE2 n=9, EE2 given HDAC+DNMT inhibitors n=6, GEN n=14, and GEN given HDAC+DNMT inhibitors n=8.
# Mice were examined for mammary tumors by palpation once per week. Tumor growth was monitored for 16 weeks after the last dose of DMBA administration. During the follow-up, animals in which tumor burden approximated 10% of total body weight were euthanized, as required by the ethical guidelines of our institution. All surviving animals were sacrificed at that point for sample collection. The end-points for tumor data analysis were (i) latency to tumor appearance, (ii) the number of animals with tumors (tumor incidence), and (iii) the cumulative tumor area (tumor burden). The latter was achieved by adding the total tumor area per group each week and dividing it with the number of mice in the group.
# (§2) Mammary tumor latency was compared with the final tumor burden in utero EE2 and GEN exposed mice to control mice, and in utero EE2 and GEN exposed mice to control mice exposed to HDAC+DNMT inhibitors separately; analysis was done using one-way ANOVA. Cumulative tumor burden during 16 weeks of tumor monitoring in the three groups, separately in those mice not given HDAC+DNMT inhibitors and those treated with the epigenetic drugs, was analysed using repeated measures one-way ANOVA. Log rank analysis was performed to compare mammary tumor incidence in the control and in utero EE2 and GEN exposed mice, again separately in those mice not given HDAC+DNMT inhibitors and those treated with the epigenetic drugs. Data for changes in DNMT1 expression among the groups in the mammary glands and tumors were assessed using two-way ANOVA, followed by Fisher LSD test
# [13] = test system: DNMT1; assay: DNMT1 mRNA expression (qRT-PCR) in mouse mammary glands and tumors; type: in vivo; details: in utero exposure vs control mice
# Description: Total RNA was extracted using an RNeasy lipid mini kit (Qiagen, CA), according to manufacturer's instructions. One […] of total RNA per sample was used as a template for oligo-dT primed cDNA synthesis with a Supterscript reverse transcriptase, using Taqman Reverse Transcription kit (Applied Biosystems, CA). The cDNA samples served then as templates for quantitative real time PCR analysis with specific primers for the target gene using QuantiTect SYBR green PCR kit (Qiagen Inc., Valencia, Calif.) and an ABI Prism 7900 Sequence Detection System. Each sample was run in triplicate on a 384-well plate, and the qPCR run was repeated twice. The Ct values were averaged from the triplicates for each sample. To normalize the target gene expression the ratio to control RNA was calculated, i.e. the averages of the Ct triplicates from the Dnmt1 gene were divided by the average of the triplicates from the 18S gene. To determine the fold change of the target gene expression the results are presented as 2^ΔCt, where ΔCt=CT^target−Ct^18S.
# The primer sequences for m18S rRNA were as previously published by Wang et al. (27).
# as §2
smiles,measurement,setting,value
"CC(C)(c1ccc(O)cc1)c1ccc(O)cc1 [BPA, Bisphenol A]",body weight or mammary epithelial development,[1],No significant differences
same,cumulative tumor burden compared to the group exposed to control diet in utero,"[2]; C57BL/6, mouse, in vivo",~1.5 times
same,mammary tumorigenesis (onset of tumor growth and cumulative tumor burden),"[2]; mouse, in vivo",Enhanced mammary tumorigenesis
same,puberty onset / vaginal opening,[3],no effect
same,total epithelial area of the glands,[4],significantly increased
"C[C@]12CC[C@@H]3c4ccc(O)cc4CC[C@H]3[C@@H]1CC[C@@H]2O [E2, estradiol]",Fold down-regulated in E2 group,"[5]; Actn1, alpha 1 actin",−5.63 (p < 0.03) Fold
same,Fold down-regulated in E2 group,"[5]; Ccl2, chemokine (C-C motif) ligand 2",−1.81 (0.00) Fold
same,Fold down-regulated in E2 group,"[5]; Ckm, muscle creatine kinase",−7.68 (p < 0.01) Fold
same,Fold down-regulated in E2 group,"[5]; H19/Pro2605, H19fetal liver mRNA (imprinted gene)",−3.28 (p < 0.03) Fold
same,Fold up-regulated in E2 group,"[5]; Hmgcs2, 3-hydroxy-3-methylglutaryl-Coenzyme A synthase 2",2.46 (p < 0.00) Fold
same,Fold up-regulated in E2 group,"[5]; Lep, Leptin",1.59 (p < 0.02) Fold
same,Fold down-regulated in E2 group,"[5]; Myh13, heavy polypeptide 13 myosin",−6.08 (p < 0.01) Fold
same,Fold down-regulated in E2 group,"[5]; Myl2, light polypeptide 2 myosin",−10.19 (p < 0.02) Fold
same,Fold up-regulated in E2 group,"[5]; Pdk4, puruvate dehydrogenase kinase isoenzyme 4",1.82 (p < 0.02) Fold
same,Fold down-regulated in E2 group,"[5]; Pvnlb, parvalbumin",−8.64 (p < 0.03) Fold
same,acquired resistance to TAM,[6],50%
same,number of TEBs,"[7]; 1st generation offspring, postnatal day 21",increased
same,"mammary gland morphology (parenchyma, TEBs, ductal elongation, size)",[7]; 21-day-old rats exposed to 10 μg in utero vs control rats,"contain a larger parenchyma and more TEBs, exhibit more advanced ductal elongation, and are larger"
same,expression of the same miRNAs,[8],down-regulated
same,Mammary tumor incidence,[9],higher
same,total tumor burden,[9],also higher
same,tumor multiplicity,[9],also higher
same,expression of ER-a,[10],up-regulated
"O=c1c(-c2ccc(O)cc2)coc2cc(O)cc(O)c12 [GEN, Genistein]",body weight or mammary epithelial development,[1],No significant differences
same,cumulative tumor burden compared to the group exposed to control diet in utero,[2]; in utero exposure,approximately four
same,mammary tumorigenesis (onset of tumor growth and cumulative tumor burden),[2]; in utero exposure compared to controls,Enhanced mammary tumorigenesis
same,"birthweight, or postnatal weight development",[11],did not alter
same,mammary tumorigenesis,[12]; in utero exposed offspring compared to the controls,increased mammary tumorigenesis
same,Latency for first tumor to develop,[12]; in utero exposure (EE2 0.1 ppm or GEN 500 ppm in dam's diet) vs control mice,significantly shorter
same,Mammary tumor incidence,[12]; in utero exposure vs control mice,significantly higher
same,Final tumor burden per mouse,[12]; in utero exposure vs controls,significantly higher
same,puberty onset / vaginal opening,[3],delayed vaginal opening
same,puberty onset / vaginal opening,[3]; listed as genistein,delayed puberty onset
same,DNMT1 expression in mammary tumors,[13],significantly lower
same,expression of DNMT1 in mammary glands,[13],a similar increase; also recorded: an increase in DNMT1 expression; also recorded: persistent up-regulation
same,total epithelial area of the glands,[4],nearly significantly increased
